For this assay, the system named is test plant species. Nature of the assay: Post-emergent herbicidal activity test (greenhouse, foliar spray, visual growth reduction). The format is in vivo. As to conditions: post-emergence, 336 h, 140 g ai/ha. The gist of the method:
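Greenhouse plants at first–second true leaf stage sprayed overhead at 187 L/ha with compound in acetone/water/isopropanol/DMSO/crop oil/X-77 carrier; controls received solvent blank. Injury rated visually after 14 d on a 0–100% scale versus untreated and control plants, converted to growth reduction.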

The mark [1] stands for this setting: ECHCG: barnyardgrass (Echinochloa crus-galli), 14 days after application, read-out: Visual Growth Reduction (%) 14 Days After Application, ECHCG.
[2] abbreviates: IPOHE: ivy-leaf morning glory (Ipomoea hederacea), 14 days after application, read-out: Visual Growth Reduction (%) 14 Days After Application, IPOHE.
[3] abbreviates: KCHSC: kochia (Bassia scoparia), 14 days after application, read-out: Visual Growth Reduction (%) 14 Days After Application, KCHSC.
[4] abbreviates: ORYSA: rice (Oryza sativa), 14 days after application, read-out: Visual Growth Reduction (%) 14 Days After Application, ORYSA.
The mark [5] stands for this setting: SETFA: giant foxtail (Setaria faberi), 14 days after application, read-out: Visual Growth Reduction (%) 14 Days After Application, SETFA.
Where [6] appears, read: SORVU: grain sorghum (Sorghum vulgare), 14 days after application, read-out: Visual Growth Reduction (%) 14 Days After Application, SORVU.
[7] abbreviates: STEME: common chickweed (Stellaria media), 14 days after application, read-out: Visual Growth Reduction (%) 14 Days After Application, STEME.
Setting [8] is: TRZAS: wheat, spring (Triticum aestivum), 14 days after application, read-out: Visual Growth Reduction (%) 14 Days After Application, TRZAS.
Setting [9] is: blackgrass (Alopecurus myosuroides), 14 Days After Application, read-out: Visual Growth Reduction (%) ALOMY.
Setting [10] is: canada thistle (Cirsium arvense), 14 Days After Application, read-out: Visual Growth Reduction (%) CIRAR.
The mark [11] stands for this setting: crabgrass (Digitaria sanguinalis), 14 Days After Application, read-out: Visual Growth Reduction (%) DIGSA.
Setting [12] is: lambsquarters (Chenopodium album), 14 Days After Application, read-out: Visual Growth Reduction (%) CHEAL.
The mark [13] stands for this setting: redroot pigweed (Amaranthus retroflexus), 14 Days After Application, read-out: Visual Growth Reduction (%) AMARE.
Setting [14] is: wild oat (Avena fatua), 14 Days After Application, read-out: Visual Growth Reduction (%) AVEFA.
[15] abbreviates: yellow nutsedge (Cyperus esculentus), 14 Days After Application, read-out: Visual Growth Reduction (%) CYPES.

Read-outs that look alike come from different tables or passages of the source.

As for `O=C(O)c1nc(-c2cc(F)c(C(F)(F)F)cc2Cl)c(F)cc1Cl` [F254, 3-Chloro-6-(2-chloro-5-fluoro-4-(trifluoromethyl)phenyl)-5-fluoropicolinic acid], the pest or weed control at 140 g/ha reads like this: under setting [1], 95 to 100%; under setting [2], 95 to 100%; under setting [3], 85 to 94%; under setting [4], 75 to 84%; under setting [5], 95 to 100%; under setting [6], 95 to 100%. Also, the pest or weed control at 140 g/ha is, setting by setting: under setting [7], 95 to 100%; under setting [8], 95 to 100%; under setting [9], 85 to 94%; under setting [10], 95 to 100%; under setting [11], 95 to 100%; under setting [12], 95 to 100%. For the same compound, the pest or weed control at 140 g/ha reads like this: under setting [13], 95 to 100%; under setting [14], 95 to 100%; under setting [15], 60 to 74%.

Turning to `O=C(O)c1nc(-c2cccc3c2OC(F)(F)O3)ccc1Cl` [F255, 3-Chloro-6-(2,2-difluorobenzo[d][1,3]dioxol-4-yl)picolinic acid], the pest or weed control at 140 g/ha by setting is: under setting [1], 0 to 29%; under setting [2], 0 to 29%; under setting [3], 0 to 29%; under setting [4], 0 to 29%; under setting [5], 0 to 29%; under setting [6], 0 to 29%. Moreover, the pest or weed control at 140 g/ha by setting is: under setting [7], 0 to 29%; under setting [8], 0 to 29%; under setting [9], 0 to 29%; under setting [10], 0 to 29%; under setting [11], 0 to 29%; under setting [12], 0 to 29%. For the same compound, the pest or weed control at 140 g/ha under setting [13] was in the range of 0 to 29%, the pest or weed control at 140 g/ha under setting [14] lay in the range of 0 to 29% and the pest or weed control at 140 g/ha under setting [15] was 0 to 29%.

Turning to `COC(=O)c1nc(-c2cccc3c2OC(F)(F)O3)c(F)cc1Cl` [F256, Methyl 3-chloro-6-(2,2-difluorobenzo[d][1,3]dioxol-4-yl)-5-fluoropicolinate], the pest or weed control at 140 g/ha was in the range of 0 to 29% under setting [1]; 0 to 29% under setting [2]; 0 to 29% under setting [3]; 0 to 29% under setting [4]; 0 to 29% under setting [5]; 0 to 29% under setting [6]. The pest or weed control at 140 g/ha by setting is: under setting [7], 0 to 29%; under setting [8], 0 to 29%; under setting [9], 0 to 29%; under setting [10], 0 to 29%; under setting [11], 0 to 29%; under setting [12], 0 to 29%. In addition, the pest or weed control at 140 g/ha is, setting by setting: under setting [13], 0 to 29%; under setting [14], 0 to 29%; under setting [15], 0 to 29%.

As to `COC(=O)c1nc(-c2cc(Br)c(C(F)(F)F)cc2Cl)c(Cl)cc1Cl` [F257, Methyl 6-(5-bromo-2-chloro-4-(trifluoromethyl)phenyl)-3,5-dichloropicolinate], the pest or weed control at 140 g/ha is, setting by setting: under setting [1], 0 to 29%; under setting [2], 85 to 94%; under setting [3], 0 to 29%; under setting [4], 0 to 29%; under setting [5], 0 to 29%; under setting [6], 0 to 29%. Moreover, the pest or weed control at 140 g/ha under setting [7] was in the range of 0 to 29%; the pest or weed control at 140 g/ha under setting [8] is 0 to 29%; the pest or weed control at 140 g/ha under setting [9] fell in the range of 0 to 29%; the pest or weed control at 140 g/ha under setting [10] was in the range of 0 to 29%; the pest or weed control at 140 g/ha under setting [11] was 0 to 29%; the pest or weed control at 140 g/ha under setting [12] was 75 to 84%. The pest or weed control at 140 g/ha reads like this: under setting [13], 0 to 29%; under setting [14], 0 to 29%; under setting [15], 0 to 29%.

On to `COC(=O)c1nc(-c2ccc3c(c2)OC(F)(F)O3)c(F)cc1Cl` [F258, Methyl 3-chloro-6-(2,2-difluorobenzo[d][1,3]dioxol-5-yl)-5-fluoropicolinate], for which the pest or weed control at 140 g/ha runs as follows: under setting [1], 0 to 29%; under setting [2], 95 to 100%; under setting [3], 0 to 29%; under setting [4], 0 to 29%; under setting [5], 0 to 29%; under setting [6], 75 to 84%. The pest or weed control at 140 g/ha lay in the range of 0 to 29% under setting [7]; 0 to 29% under setting [8]; 0 to 29% under setting [9]; 0 to 29% under setting [10]; 85 to 94% under setting [11]; 75 to 84% under setting [12]. The pest or weed control at 140 g/ha runs as follows: under setting [13], 60 to 74%; under setting [14], 0 to 29%; under setting [15], 30 to 44%.

As to `Cc1cc(C(F)(F)F)cc(Cl)c1-c1ccc(Cl)c(C(=O)O)n1` [F259, 3-Chloro-6-(2-chloro-6-methyl-4-(trifluoromethyl)phenyl)picolinic acid], the pest or weed control at 140 g/ha reads like this: under setting [1], 45 to 59%; under setting [2], 95 to 100%; under setting [3], 60 to 74%; under setting [4], 0 to 29%; under setting [5], 75 to 84%; under setting [6], 85 to 94%. The pest or weed control at 140 g/ha is 0 to 29% under setting [7]; 45 to 59% under setting [8]; 0 to 29% under setting [9]; 75 to 84% under setting [10]; 60 to 74% under setting [11]; 75 to 84% under setting [12]. Also, the pest or weed control at 140 g/ha reads like this: under setting [13], 95 to 100%; under setting [14], 0 to 29%; under setting [15], 0 to 29%.

`COC(=O)c1nc(-c2ccc3ccsc3c2F)ccc1Cl` [F260, Methyl 3-chloro-6-(7-fluorobenzo[b]thiophen-6-yl) picolinate]: the pest or weed control at 140 g/ha runs as follows: under setting [1], 0 to 29%; under setting [2], 0 to 29%; under setting [3], 0 to 29%; under setting [4], 0 to 29%; under setting [5], 0 to 29%; under setting [6], 0 to 29%. For the same compound, the pest or weed control at 140 g/ha by setting is: under setting [7], 0 to 29%; under setting [8], 0 to 29%; under setting [9], 0 to 29%; under setting [10], 0 to 29%; under setting [11], 0 to 29%; under setting [12], 0 to 29%. Further, the pest or weed control at 140 g/ha runs as follows: under setting [13], 0 to 29%; under setting [14], 0 to 29%; under setting [15], 0 to 29%.

Regarding `COC(=O)c1nc(-c2cc3nonc3cc2Cl)ccc1Cl` [F261, Methyl 3-chloro-6-(6-chlorobenzo[c][1,2,5]oxadiazol-5-yl)picolinate], the pest or weed control at 140 g/ha is, setting by setting: under setting [1], 0 to 29%; under setting [2], 75 to 84%; under setting [3], 0 to 29%; under setting [4], 0 to 29%; under setting [5], 0 to 29%; under setting [6], 0 to 29%. Moreover, the pest or weed control at 140 g/ha by setting is: under setting [7], 0 to 29%; under setting [8], 0 to 29%; under setting [9], 0 to 29%; under setting [10], 30 to 44%; under setting [11], 60 to 74%; under setting [12], 60 to 74%. Also, the pest or weed control at 140 g/ha under setting [13] lay in the range of 0 to 29%, the pest or weed control at 140 g/ha under setting [14] lay in the range of 0 to 29% and the pest or weed control at 140 g/ha under setting [15] fell in the range of 0 to 29%.

In the case of `COC(=O)c1nc(-c2ccc3ncoc3c2)ccc1Cl` [F262, Methyl 6-(benzo[d]oxazol-6-yl)-3-chloropicolinate], the pest or weed control at 140 g/ha under setting [1] fell in the range of 0 to 29%; the pest or weed control at 140 g/ha under setting [2] lay in the range of 30 to 44%; the pest or weed control at 140 g/ha under setting [3] lay within 0 to 29%; the pest or weed control at 140 g/ha under setting [4] lay in the range of 0 to 29%; the pest or weed control at 140 g/ha under setting [5] lay in the range of 0 to 29%; the pest or weed control at 140 g/ha under setting [6] was in the range of 0 to 29%. In addition, the pest or weed control at 140 g/ha is, setting by setting: under setting [7], 0 to 29%; under setting [8], 0 to 29%; under setting [9], 0 to 29%; under setting [10], 0 to 29%; under setting [11], 0 to 29%; under setting [12], 30 to 44%. Moreover, the pest or weed control at 140 g/ha is, setting by setting: under setting [13], 0 to 29%; under setting [14], 0 to 29%; under setting [15], 0 to 29%.

The values above are taken from patent US20230017045A1, “PYRIDINE AND PYRIMIDINE CARBOXYLATE HERBICIDES AND METHODS OF USE THEREOF” (Dow AgroSciences LLC, priority 2017, published 2023).
